Test systems include KM12; SW-620; LOX IMVI; NCI-H460; 786-0; SF-539; NCI-H23; UACC-62; SN12C; SK-MEL-2; IGROV-1; M14; EKVX; OVCAR-3; HCT-15; CAKI-1.
What all share (assay): growth of human tumour cells (NCI), 48 h

Molecules are shown by their SMILES.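 The compound was tested at five concentrations on cells cultured in 96-well plates, with a 48-hour exposure period. The concentration for 50% growth inhibition is given as GI50.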 Activity calls are given as the source filed them. Rule as the data show it: active = GI50 up to about 1.1 µM and inactive = higher. Some results are limits rather than exact numbers.

Consider `O=C(OCCCl)C1OC(n2cc(F)c(=O)[nH]c2=O)CC1O` (stereo not given), for which the GI50 with KM12 is > 100 µM (inactive); in the assay with SW-620, > 100 µM (inactive); in the assay with LOX IMVI, > 100 µM (inactive); with NCI-H460, 92 µM (inactive); in the assay on 786-0 it was > 100 µM (inactive); in the assay on SF-539, > 100 µM (inactive). In addition, the GI50 in the assay with NCI-H23, with UACC-62, in the assay on SN12C, in the assay with SK-MEL-2, with IGROV-1 and in the assay on M14 was > 100 µM (inactive) each time. For the same molecule, the GI50 with EKVX is > 100 µM (inactive); in the assay with OVCAR-3, > 100 µM (inactive); in the assay on HCT-15, more than 100 µM.

As to `COc1cc(Cl)cc(O)c(=O)c1OC`, the GI50 in the assay with KM12 was 72.8 µM (inactive); in the assay with LOX IMVI, 26.1 µM (inactive); in the assay with NCI-H460, 24.3 µM (inactive); in the assay on 786-0 it was 61.1 µM (inactive); in the assay on SF-539, 44.5 µM (inactive); in the assay with NCI-H23, 35.1 µM (inactive). Also, the GI50 in the assay with UACC-62 was 24.4 µM (inactive); with SN12C, 46 µM (inactive); with SK-MEL-2, 53.2 µM (inactive); with M14 it was 41.8 µM (inactive); in the assay on EKVX, 25.4 µM (inactive); in the assay on OVCAR-3, 20.1 µM (inactive). Further, in the assay with HCT-15, the GI50 was 25.4 µM.

For the molecule `COC(=O)C1CC(c2ccc(Cl)cc2)=NO1` (stereo not given), the GI50 in the assay on KM12, in the assay with SW-620, with NCI-H460, in the assay with 786-0, in the assay on SF-539 and with NCI-H23 was > 100 µM (inactive) throughout. Moreover, the GI50 is > 100 µM (inactive) with UACC-62; > 100 µM (inactive) in the assay with SN12C; > 100 µM (inactive) in the assay with SK-MEL-2; 6.17 µM (inactive) in the assay with CAKI-1; > 100 µM (inactive) in the assay with IGROV-1; > 100 µM (inactive) with M14. Also, the values for the GI50 in the assay with EKVX, with OVCAR-3 and in the assay with HCT-15 were > 100 µM (inactive), > 100 µM (inactive) and more than 100 µM, respectively.

Turning to `Cc1ccc(NCC(=O)N2CC(=O)Nc3ccccc32)cc1`, the GI50 with KM12, in the assay with SW-620, in the assay on LOX IMVI, in the assay with NCI-H460, with 786-0 and with SF-539 was > 100 µM (inactive) each time. Further, the GI50 with NCI-H23, in the assay with UACC-62, in the assay with SN12C, with SK-MEL-2, in the assay with CAKI-1 and in the assay on M14 was > 100 µM (inactive) throughout. Also, the results for the GI50 in the assay on EKVX, with OVCAR-3 and in the assay with HCT-15 were > 100 µM (inactive), > 100 µM (inactive) and more than 100 µM, respectively.

For the molecule `Cc1cc(C)nc(NS(=O)(=O)c2ccc(Nc3c4ccc(Cl)cc4nc4c(C(=O)NCCN(C)C)cccc34)cc2)n1`, the GI50 with KM12, with SW-620, with LOX IMVI, in the assay with NCI-H460, in the assay with 786-0 and in the assay on SF-539 was > 100 µM (inactive) each time. Also, the GI50 in the assay on NCI-H23, in the assay with UACC-62, in the assay with SN12C, with CAKI-1, in the assay on IGROV-1 and in the assay with M14 was > 100 µM (inactive) in each case. Moreover, the GI50 was > 100 µM (inactive) in the assay on EKVX, > 100 µM (inactive) in the assay on OVCAR-3 and more than 100 µM in the assay with HCT-15.

Take `NCCCCCS(=O)(=O)O`: the GI50 with KM12, in the assay with SW-620, in the assay with LOX IMVI, in the assay with NCI-H460, in the assay on 786-0 and with SF-539 was > 100 µM (inactive) each time. In addition, the GI50 with NCI-H23, with UACC-62, with SN12C, with SK-MEL-2, in the assay on IGROV-1 and in the assay with M14 was > 100 µM (inactive) in each case. Further, the GI50 was > 100 µM (inactive) with EKVX, > 100 µM (inactive) with OVCAR-3 and more than 100 µM in the assay with HCT-15.

With `COc1ccc(/C=C/c2onc3c(=O)n(C)nc(-c4ccccc4)c23)cc1`, the GI50 is > 100 µM (inactive) with SW-620; > 100 µM (inactive) in the assay with LOX IMVI; > 100 µM (inactive) in the assay on NCI-H460; > 100 µM (inactive) in the assay on 786-0; 48.9 µM (inactive) in the assay with SF-539; > 100 µM (inactive) in the assay with NCI-H23. Moreover, the GI50 in the assay with UACC-62 was > 100 µM (inactive); in the assay on SN12C, > 100 µM (inactive); in the assay on CAKI-1 it was 35.9 µM (inactive); in the assay with IGROV-1, > 100 µM (inactive); in the assay on M14, > 100 µM (inactive); in the assay with EKVX, > 100 µM (inactive). For the same molecule, the GI50 with HCT-15 is more than 100 µM.

On to `Cc1ccc(C2CC(c3ccco3)=NN2c2ccccc2)o1` (stereo not given), for which the GI50 in the assay on KM12, in the assay with SW-620, in the assay with LOX IMVI, with NCI-H460, with 786-0 and with SF-539 was > 100 µM (inactive) throughout. Also, the GI50 with NCI-H23, in the assay on UACC-62, in the assay on SN12C, with SK-MEL-2, with IGROV-1 and in the assay on M14 was > 100 µM (inactive) in each case. Also, the GI50 is > 100 µM (inactive) with EKVX, > 100 µM (inactive) in the assay with OVCAR-3 and more than 100 µM in the assay on HCT-15.

Regarding `CCCCN(CCCC)CCCCNc1c(C)cnc2cc(Cl)ccc12`, the GI50 with KM12 was 36.6 µM (inactive); in the assay on SW-620, 20.9 µM (inactive); with LOX IMVI, 14.2 µM (inactive); in the assay with NCI-H460 it was 30.9 µM (inactive); in the assay on 786-0 it was 14 µM (inactive); in the assay with SF-539, 13.4 µM (inactive). The GI50 was 38.7 µM (inactive) in the assay on NCI-H23; 30.6 µM (inactive) with SN12C; 21.2 µM (inactive) in the assay on SK-MEL-2; 1.94 µM (inactive) in the assay with M14; 20 µM (inactive) in the assay with EKVX; 30.2 µM (inactive) in the assay with OVCAR-3. This molecule also had a GI50 in the assay on HCT-15 of 29.9 µM.

As for `Cn1c2ccccc2c(=O)c2c([N+](=O)[O-])ccc(NCCN)c21`, the GI50 was 6.43 µM (inactive) with KM12; 4.55 µM (inactive) with SW-620; 6.92 µM (inactive) with NCI-H460; 6.93 µM (inactive) with 786-0; 8.24 µM (inactive) in the assay on SF-539; 10.7 µM (inactive) in the assay on NCI-H23. For the same molecule, the GI50 is 14.9 µM (inactive) with UACC-62; 5.14 µM (inactive) in the assay with SN12C; 15.3 µM (inactive) in the assay with SK-MEL-2; 11.9 µM (inactive) in the assay on CAKI-1; 12.3 µM (inactive) in the assay with IGROV-1; 14 µM (inactive) with M14. The GI50 with EKVX was 16.5 µM (inactive); with OVCAR-3, 13.8 µM (inactive); in the assay with HCT-15, 12.9 µM.

With `CCCNCC(=O)O[C@]1(CC)C(=O)OCc2c1cc1n(c2=O)Cc2cc3ccccc3nc2-1`, the GI50 was 0.528 µM (active) in the assay on KM12; 0.0134 µM (active) with LOX IMVI; < 0.01 µM (active) with NCI-H460; < 0.01 µM (active) in the assay on 786-0; 0.0118 µM (active) with SF-539; 0.0149 µM (active) in the assay with NCI-H23. Besides, the GI50 in the assay with UACC-62 is < 0.01 µM (active); in the assay with SN12C it was < 0.01 µM (active); with SK-MEL-2 it was 1.13 µM (inactive); in the assay on IGROV-1 it was 0.325 µM (active); in the assay on M14, 0.0681 µM (active); with EKVX it was 25.1 µM (inactive). In addition, in the assay with OVCAR-3, the GI50 was 0.457 µM (active).

On to `CC1(C)C(=O)/C=C\C(=O)C(C)(C)C2=CC=C(O2)C(C)(C)C(=O)/C=C\C(=O)C(C)(C)C2=CC=C1O2`, for which the GI50 with KM12, in the assay on SW-620, in the assay with LOX IMVI, in the assay with NCI-H460, with 786-0 and in the assay on NCI-H23 was > 100 µM (inactive) in each case. In addition, the GI50 with SN12C, in the assay on SK-MEL-2, with CAKI-1, with IGROV-1, in the assay on EKVX and with OVCAR-3 was > 100 µM (inactive) in each case. For the same molecule, the GI50 in the assay on HCT-15 is more than 100 µM.

Take `COC1=CC(=O)C2C(C1=O)C(c1ccc(OC)c(OC)c1)[C@H]2C` (stereo not given in full): the GI50 with KM12 was > 100 µM (inactive); in the assay with SW-620, 20 µM (inactive); in the assay on LOX IMVI it was 22.9 µM (inactive); in the assay with NCI-H460, > 100 µM (inactive); with 786-0 it was 18 µM (inactive); in the assay on SF-539, > 100 µM (inactive). The GI50 with NCI-H23 was 19.9 µM (inactive); in the assay on UACC-62 it was > 100 µM (inactive); in the assay with SK-MEL-2, > 100 µM (inactive); with CAKI-1 it was 11.5 µM (inactive); in the assay on IGROV-1 it was > 100 µM (inactive); in the assay on M14, 19 µM (inactive). Moreover, the GI50 was > 100 µM (inactive) with EKVX, 19.6 µM (inactive) in the assay with OVCAR-3 and 18.2 µM in the assay on HCT-15.

On to `CCCCCCCCCCCC[N+]12CC[N+](CCN)(CC1)CC2`, for which the GI50 was 23.7 µM (inactive) in the assay with KM12; > 100 µM (inactive) with SW-620; 37.8 µM (inactive) in the assay with LOX IMVI; 29.2 µM (inactive) with NCI-H460; > 100 µM (inactive) in the assay with 786-0; 89.7 µM (inactive) in the assay with SF-539. The GI50 was 51.6 µM (inactive) in the assay with NCI-H23; 56.9 µM (inactive) in the assay with UACC-62; 76.7 µM (inactive) with SN12C; > 100 µM (inactive) in the assay with SK-MEL-2; 19.2 µM (inactive) with CAKI-1; 10.8 µM (inactive) in the assay with IGROV-1. The GI50 with M14, in the assay on EKVX and in the assay on OVCAR-3 was > 100 µM (inactive) throughout.
